Measured values from US20060014740A1 (priority 2003, published 2006).
Counter-ions that a name gives are not always drawn. Like-named read-outs stand apart in the source and are kept apart here.

How the values were obtained:
[1] = system: OVCAR-3 human ovarian cancer cell line; assay: SRB cytotoxicity assay, OVCAR-3; type: cell-based; settings: Table 8
Protocol: (§1) For in vitro cytotoxicity screening, 1000 to 5000 cells were plated into each well of 96-well plates depending on growth rate, and exposed to different concentrations of a test compound for 96 h in three to five replicates. All the compounds were dissolved in dimethyl sulfoxide at 5 to 20 mM, and diluted to desired concentrations in complete culture medium. Cell numbers at the end of the drug treatment were measured by the SRB assay (Gududuru et al., “Synthesis and Biological Evaluation of Novel Cytotoxic Phospholipids for Prostate Cancer,” Bioorg. Med. Chem. Lett. 14:4919-4923 (2004); Rubinstein et at., “Comparison of in vitro Anticancer-Drug-Screening Data Generated with a Tetrazolium Assay Versus a Protein Assay Against a Diverse Panel of Human Tumor Cell Lines,” J. Naatl, Cancer Inst. 82:1113-1118 (1990), each of which is hereby incorporated by reference in its entirety). Briefly, the cells were fixed with 10% of trichloroacetic acid, stained with 0.4% SRB, and the absorbances at 540 nm was measured using a plate reader (DYNEX Technologies, Chantilly, Va.).
(§2) In vitro cytotoxicity assay was performed by the same sulforhodamine B (SRB) assay (described above). The compounds shown in Table 8 below where tested for activity against the breast cancer and ovarian cancer cell lines.

[2] = system: LNCaP human prostate cancer cells; assay: SRB cytotoxicity assay, LNCaP; type: cell-based; settings: 96 h; for IC50: read-out: IC50 LNCaP
How it was run: (§3)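 Read-out is protein-bound sulforhodamine B absorbance at 540 nm, reflecting cell number after 96 h of drug treatment. Compounds, taken from DMSO stocks and diluted in complete medium, spanned 0 to 100 μM.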

[3] = system: RH7777 rat hepatoma cells; assay: SRB cytotoxicity assay, RH7777 control cell line; type: cell-based; settings: for IC50: read-out: IC50 RH7777
How it was run: as §3

[4] = system: SKOv-3 human ovarian cancer cell line; assay: SRB cytotoxicity assay, SKOv-3; type: cell-based; settings: Table 8
Protocol: as §1, §2

[5] = system: TSU-Pr1 human prostate cancer cells; assay: SRB cytotoxicity assay, TSU-Pr1; type: cell-based; settings: 96 h
How it was run: as §3

[6] = system: PPC-1 human prostate cancer cells; assay: SRB cytotoxicity assay, PPC-1; type: cell-based; settings: for IC50: Homo sapiens, PPC-1
How it was run: as §3

[7] = system: DU-145 human prostate cancer cells; assay: SRB cytotoxicity assay, DU-145; type: cell-based; settings: 96 h
How it was run: as §3

[8] = system: PC-3 human prostate cancer cells; assay: SRB cytotoxicity assay, PC-3; type: cell-based; settings: 96 h, read-out: IC50 PC-3
How it was run: as §3

[9] = system: CaOv-3 human ovarian cancer cell line; assay: SRB cytotoxicity assay, CaOv-3; type: cell-based; settings: Table 8
Protocol: as §1, §2

[10] = system: CHO cells (CHO-1, CHO-K1); assay: SRB cytotoxicity assay, CHO; type: cell-based; settings: Table 9; negative control cell line; 96 h
Protocol: as §1, §2
Cells were exposed to a wide range of concentrations (0 to 100 μM) of the particular compound for 96 h in 96 well plates. Cells were fixed with 10% trichloroacetic acid, washed five times with water. The plates were air dried overnight and fixed cells were stained with SRB solution. The cellular protein-bound SRB was measured at 540 nm using a plate reader. Cell numbers at the end of the treatment were measured.
Cells were exposed to a wide range of concentrations (0 to 100 μM) of the particular compound for 96 h in 96-well plates. Cells were fixed with 10% trichloroacetic acid, washed five times with water. The plates were air dried overnight and fixed cells were stained with SRB solution. The cellular protein-bound SRB was measured at 540 nm using a plate reader. Cell numbers at the end of the treatment were calculated as a percentage of untreated control.

[11] = system: human breast cancer cell line (MCF-7); assay: SRB cytotoxicity assay, MCF-7; type: cell-based; settings: Homo sapiens, MCF7, read-out: IC50 MCF-7
How it was run: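 Cells plated at 1000–5000 per well by growth rate and exposed to compound (0 to 100 μM) for 96 h, three to five replicates. Cell number read by sulforhodamine B: TCA fixation, 0.4% SRB staining, absorbance at 540 nm.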

[12] = Rattus norvegicus, RH7777, Table 4, control cell line, 96 h
[13] = Homo sapiens, TSU-Pr1, Table 4, read-out: IC50 TSU-Pr1
[14] = Table 4, 96 h, read-out: IC50 PPC-1
[15] = Homo sapiens, DU-145, read-out: IC50 DU-145, Table 4
[16] = Table 8, breast cancer cell line
[17] = Homo sapiens, LNCaP, Example 10 table
[18] = Rattus norvegicus, RH7777, Example 10 table, 0 to 100 μM for 96 h
[19] = Homo sapiens, TSU-Pr1, Example 10 table, read-out: IC50 TSU-Pr1
[20] = Example 10 table, 96 h, read-out: IC50 PPC-1
[21] = Homo sapiens, DU-145, read-out: IC50 DU-145, Example 10 table
[22] = Rattus norvegicus, RH7777, Table 3, control cell line, 96 h
[23] = Homo sapiens, TSU-Pr1, Table 3, read-out: IC50 TSU-Pr1
[24] = Homo sapiens, DU-145, read-out: IC50 DU-145, Table 3
[25] = Table 3, 96 h, read-out: IC50 PPC-1

| SMILES | IC50 ([1]; Homo sapiens, OVCAR-3) [µM] | IC50 ([2]; Homo sapiens, LNCaP, Table 4) [µM] | IC50 [3, 12] [µM] | IC50 ([4]; Homo sapiens, SK-OV-3) [µM] | IC50 [5, 13] [µM] | IC50 [6, 14] [µM] | IC50 [7, 15] [µM] | IC50 ([9]; Homo sapiens, Caov-3) [µM] | melting point [°C] | IC50 [11, 16] [µM] | IC50 ([2]; Homo sapiens, LNCaP, Table 3) [µM] | IC50 [3, 22] [µM] | IC50 [5, 23] [µM] | IC50 [7, 24] [µM] | IC50 ([8]; Homo sapiens, Table 3) [µM] | other results |
| --- | --- | --- | --- | --- | --- | --- | --- | --- | --- | --- | --- | --- | --- | --- | --- | --- |
| CCCCCCCCCCCCCCCCCCNC(=O)[C@@H]1CSC(c2ccc(NC(C)=O)cc2)N1.Cl (mixture of isomers) [Compound 18-HCI, (2RS, 4R)-2-(4-Acetylamino-phenyl)-thiazolidine-4-carboxylic acid octadecylamide Hydrochloride] | 2 | 1.3 | 21.1 | 2.6 | 0.94 | 0.55 | 3.1 | 4.9 |  |  |  |  |  |  |  | Selectivity in PPC-1 cells compared to RH7777 cells [6]: 38 fold; IC50 ([6]; read-out: IC50 in PPC-1 cells): 0.55 µM; IC50 ([8]; Homo sapiens, Table 4): 5.6 µM |
| CCCCCCCCC=CCCCCCCCC(=O)NCCOP(=O)(O)O [compound 320] |  |  |  |  |  |  |  |  |  |  |  |  |  |  |  | IC50 LNCaP ([2]; Table 9): Not Active; IC50 ([3]; Table 9, negative control cell line, 96 h): > 50 µM; IC50 ([5]; Table 9, read-out: IC50 TSU): > 50 µM; IC50 ([7]; read-out: IC50 DU-145, Table 9): > 50 µM; IC50 ([8]; Table 9): > 50 µM; IC50 [10]: > 50 µM |
| CCCCCCCCCCCCCCCCCCNC(=O)[C@@H]1CSC(c2ccc(F)cc2)N1 (mixture of isomers) [Compound 19, (2RS, 4R)-2-(4-Fluoro-phenyl)-thiazolidine-4-carboxylic acid octadecylamide] | 2.3 | 1.9 | 17.4 | 4.2 | 5.4 | 2.1 | 5.7 | 5.5 | 65 | 8.8 |  |  |  |  |  |  |
| CCCCCCCCCCCCCCCCCCNC(=O)[C@H]1CSC(c2ccccc2)N1 (stereo partly drawn) [5-HCI (S), (4S)-N-octadecyl-2-phenylthiazolidine-4-carboxamide] | 5.2 |  |  | 18 |  |  |  | 18 |  | 7.4 |  |  |  |  |  | IC50 [2, 17]: 6.3 µM; IC50 [3, 18]: 19.1 µM; IC50 ([11]; Example 10 table, 96 h): 7.4 µM; IC50 [5, 19]: ~10 µM; IC50 [6, 20]: 4 µM; IC50 [7, 21]: 7.1 µM; IC50 ([8]; Homo sapiens, Example 10 table): > 10 µM |
| CCCCCCCNC(=O)[C@@H]1CSC(c2ccccc2)N1 (mixture of isomers) [Compound 3-HCI, (2RS, 4R)-2-Phenylthiazolidine-4-carboxylic acid heptylamide Hydrochloride] | 34 |  |  | 47.8 |  |  |  | 19.2 |  | 50.3 |  |  |  |  |  | IC50 [2, 17]: 12.4 µM; IC50 [3, 18]: 52.2 µM; IC50 ([11]; Example 10 table, 96 h): 50.3 µM; IC50 [5, 19]: 28 µM; IC50 [6, 20]: 34.7 µM; IC50 [7, 21]: 44.9 µM; IC50 ([8]; Homo sapiens, Example 10 table): 38.5 µM |
| CCCCCCCCCCCCCCCCCCNC(=O)[C@@H]1CSC(c2cc(OC)c(OC)c(OC)c2)N1 (mixture of isomers) [Compound 17-HCI, (2RS, 4R)-2-(3,4,5-Trimethoxy-phenyl)-thiazolidine-4-carboxylic acid octadecylamide Hydrochloride] | 1.4 |  |  | 2.7 |  |  |  | 4.4 |  |  | 0.82 | 11.4 | 2.4 | 3.9 | 4 |  |
| Cl.O=C(O)[C@@H]1CSC(c2ccoc2)N1 (mixture of isomers) [Compound 12-HCI, (2RS, 4R)-2-Furan-3-yl-thiazolidine-4-carboxylic acid Hydrochloride] | 2.3 |  |  | 5.4 |  |  |  | 7.7 |  |  | 1.7 | 10.4 | 4.2 | 6.6 | 8.1 | Fold less selective against RH7777 cell line than compound 5 [3]: 3 fold; IC50 [6, 25]: 1.1 µM |
| CCCCCCCCCCCCCCCCCCNC(=O)[C@@H]1CSC(c2ccc(OC)c(OC)c2)N1 (mixture of isomers) [Compound 16-HCI, (2RS, 4R)-2-(3,4-Dimethoxy-phenyl)-thiazolidine-4-carboxylic add octadecylamide Hydrochloride] |  |  |  |  |  |  |  |  |  |  |  |  |  |  |  | IC50 [1]: 1.2 µM; IC50 ([2]; Table 3): 0.85 µM; IC50 ([3]; Table 3, control cell line, 96 h): 10.3 µM; IC50 [4]: 3.6 µM; IC50 ([5]; Table 3, read-out: IC50 TSU-Pr1): 2.4 µM; IC50 ([7]; read-out: IC50 DU-145, Table 3): 4.5 µM; IC50 ([8]; Table 3): 5.2 µM; IC50 [9]: 5.5 µM |
| CCCCCCCCCCCCCCCCCCNC(=O)[C@@H]1CSC(c2ccc(N(C)C)cc2)N1 (mixture of isomers) [Compound 13, (2RS, 4R)-2-(4-Dimethylamino-phenyl)-thiazolidine-4-carboxylic acid octadecylamide] |  |  |  |  |  |  |  |  | 75 | 13.5 | 1.6 | > 20 | 3 | 5.3 | 6 | IC50 [6, 25]: 1.1 µM |
| CCCCCCCCCCCCCCCCCCNC(=O)[C@@H]1CSC(c2ccc(F)c(Br)c2)N1 (mixture of isomers) [Compound 25, (2RS, 4R)-2-(3-Bromo-4-fluoro-phenyl)-thiazolidine-4-carboxylic acid octadecylamide] |  | 3 | ~20 |  | 14 | 4.7 | 11.3 |  | 100 | 15.3 |  |  |  |  |  | IC50 ([8]; Homo sapiens, Table 4): 13.5 µM |
